# Patent US20220296583A1, “COMPOSITIONS AND METHODS FOR TREATMENT OF OVARIAN AND BREAST CANCER” (Board of Regents, The University of Texas System, priority 2021, published 2022)
# pIC50: −log10 of the molar value. Where two headings read alike, the source gives them in different places.
# Tests used:
# [1] = system: SIK2-expressed SKOV3 cells; assay: Cell viability assessment of SKOV3; assay type: cell-based
# BT549 = assay: CellTiter-Glo cell viability dose response; assay type: cell-based; conditions: Homo sapiens, BT-549, 96 h
# Protocol: (§1) Luminescence was measured on a Synergy2 microplate reader (BioTek) after 10 min of shaking. Dose-response experiments were plotted and IC50 values were calculated using nonlinear curve fitting with normalized response and variable slope by GraphPad Prism 8. Drug interaction of the two-drug combination using a constant ratio were processed and a Combination Index (CI) was calculated using CalcuSyn 2.0 (BIOSOFT). CI<1 indicates synergism, CI=1 indicates additive effect and CI>1 indicates antagonism.
# DOV13 = assay: CellTiter-Glo cell viability dose response; assay type: cell-based; conditions: Homo sapiens, DOV13, 96 h
# Protocol: as §1
# HCC5032 = assay: CellTiter-Glo cell viability dose response; assay type: cell-based; conditions: 96 h
# Protocol: as §1
# HMEC16620 = assay: CellTiter-Glo cell viability dose response; assay type: cell-based; conditions: Homo sapiens, 96 h
# Protocol: as §1
# IGROV1 = assay: CellTiter-Glo cell viability dose response; assay type: cell-based; conditions: Homo sapiens, IGROV-1, 96 h
# Protocol: as §1
# MDA-2774 = assay: CellTiter-Glo cell viability dose response; assay type: cell-based; conditions: Homo sapiens, 96 h
# Protocol: as §1
# MDA-MD-231 = assay: CellTiter-Glo cell viability dose response; assay type: cell-based; conditions: Homo sapiens, 96 h
# Protocol: as §1
# NOE72 = assay: CellTiter-Glo cell viability dose response; assay type: cell-based; conditions: 96 h
# Protocol: as §1
# OAW28 = assay: CellTiter-Glo cell viability dose response; assay type: cell-based; conditions: Homo sapiens, OAW-28, 96 h
# Protocol: as §1
# OC316 = assay: CellTiter-Glo cell viability dose response; assay type: cell-based; conditions: Homo sapiens, 96 h
# Protocol: as §1
# OV90 = assay: CellTiter-Glo cell viability dose response; assay type: cell-based; conditions: Homo sapiens, OV-90, 96 h
# Protocol: as §1
# OVCAR3 = assay: CellTiter-Glo cell viability dose response; assay type: cell-based; conditions: Homo sapiens, OVCAR-3, 96 h
# Protocol: as §1
# OVCAR8 = assay: CellTiter-Glo cell viability dose response; assay type: cell-based; conditions: Homo sapiens, OVCAR-8, 96 h
# Protocol: as §1
# SKOv3 = assay: CellTiter-Glo cell viability dose response; assay type: cell-based; conditions: Homo sapiens, SK-OV-3, 96 h
# Protocol: as §1
# [2] = system: SKOv3, OVCAR8, HCC5032, or MDA-MB-231 cells; assay: DNA damage: γ-H2AX staining and comet assay with olaparib; assay type: cell-based; conditions: SKOv3, OVCAR8, HCC5032, MDA-MB-231
# Protocol: Cells were trypsinized and resuspended at 2×10^5/mL in cold PBS without Ca^2+ and Mg^2+. Cells were mixed with pre-warmed comet agarose at 1:10 (v/v) ratio. 10 uL of cell agarose mixture was plated onto comet slides pre-coated with 75 uL of agarose and chilled at 4° C. for 15 min to set. Cells were lysed in 25 mL of Lysis buffer at 4° C. for 2 hrs and washed with alkaline solution (pH 10). Comet slides were electrophoresed in cold alkaline solution at 20V for 15 min. Slides were rinsed with water and dried in 70% ethanol for 5 min. Slides were then stained with Vista Green DNA dye and viewed using an Olympus epifluorescence microscope with a FITC filter. Images were captured using a 20× objective. […] Experiments were run in triplicate and Olive Tail Moment was measured using CaspLab1.2.3β2 software (CaspLab.com). Olive Tail Moment=Tail DNA %×Tail Length. 50-200 Cells were measured for each treatment and experiments were repeated twice independently to ensure reproducibility.
# Cells on 22×22 mm coverslips were fixed in 4% formaldehyde in PBS (Thermo Fisher, J19943-K2) and permeabilized with 0.1% Triton X-100 (Sigma, X100) in PBS for 15 min. Cells were blocked with 5% BSA in PBS for 30 min and then stained with antibody overnight at 4° C., followed by secondary antibody and DAPI for 1 hr. […] After 24-hrs incubation, cells were fixed in 4% formaldehyde in PBS. Cells were stained as described above. […] DNA damage visualized by γ-H2AX staining was evaluated by counting nuclear γ-H2AX puncta in each cell. […] After 8 hrs incubation, cells were fixed in 4% formaldehyde in PBS. Cells were stained as described above. Images were captured using an Olympus IX71 microscope and nuclear γ-H2AX puncta in each cells were counted using with Olympus CellSens Dimension software. HDAC5 (CST20458) and γ-H2AX (CST2577) antibodies were purchased from Cell Signaling Technology. Experiments were repeated twice independently to ensure reproducibility and 50-200 cells were counted for each treatment.
# [3] = system: HDAC4 (Ser246)/HDAC5 (Ser256)/HDAC7 (Ser155); assay: Western analysis of HDAC4/5/7 phosphorylation; assay type: cell-based; conditions: 4 μM, 24 hrs; nearly all the cell lines tested
# Protocol: (§2) To identify the mechanism(s) by which SIK2 inhibition decreases DNA DBS repair, it was tested whether SIK2 inhibitors decrease the phosphorylation of class IIa HDACs, which control its nuclear cytoplasmic shuttling and consequently its association with DNA. […] Next, it was investigated whether SIK2 inhibitors increase nuclear localization of HDAC5. SIK2 inhibition increased nuclear localization of HDAC5 judged by increasing nuclear florescence intensity (FIG. 7B and FIG. 8A) and the nuclear fraction of HDAC5 expression (FIG. 8B). […] Therefore, it was hypothesized that SIK2 inhibition may block MEF transcription factor activity. […] Next, it was examined whether SIK2 regulation of MEF2 activity was HDAC4/5-dependent, increasing its binding to MEF2D protein. […] These observations are consistent with the hypothesis that SIK2 inhibition increases nuclear localization of HDAC4/5, blocking MEF2 transcription (FIG. 8E).
# Cells were incubated with and without treatment for the intervals indicated and then cells were incubated in lysis buffer (50 mM Hepes, pH 7.0, 150 mM NaCl, 1.5 mM MgCl2, 1 mM EGTA, 10, 10% glycerol, 1% Triton X-100, 50 mM NaF, 1 mM Na3VO4 1 mM PMSF, 10 μg/mL leupeptin and10 μg/mL aprotinin) on ice for 30 min. […] The protein concentration was assessed using a bicinchoninic acid (BCA) protein assay (Thermo Scientific, 23228). […]
# MEF2 promoter activity = assay: MEF2 luciferase reporter assay; assay type: cell-based; conditions: ovarian and breast cancer cell lines; time- and dose-dependent
# Protocol: as §2
# SKOv3 xenograft [4] = assay: SKOv3 subcutaneous xenograft, SIK2 inhibitor and olaparib; assay type: in vivo, mice; conditions: SKOv3 s.c.; oral, five times per week, 4 weeks
# MDA-MB-231 xenograft = assay: MDA-MB-231 mammary fat pad xenograft, Compound B and olaparib; assay type: in vivo, mice; conditions: 50 mg/kg, oral, 5 weeks
# Protocol: Forty female nu/nu mice were injected with 0.8×10^6 MDA-MB-231 cells into their fourth mammary fat pads. […] Tumors were measured every week as noted above (SKOv3 xenograft models).
# SKOv3 cells = conditions: RNA-seq
# SKOv3 xenograft [5] = assay: SKOv3 subcutaneous xenograft, Compound B, carboplatin and paclitaxel; assay type: in vivo, mice; conditions: SKOv3 s.c.; 6 weeks; Compound B 40 mg/kg
# Protocol: After treatment as indicated in (A) for three weeks, mice were weighed, and intraperitoneal nodules were excised and weighed. […] Mice were treated with single, double, or triple agents for 6 weeks. Tumor was measured once a week until the tumor burden in control group reached maximum allowance. The graphs indicate the mean±standard deviation. Statistical significance is indicated by *p<0.05, **p<0.01, and ***p<0.0001.
# Six-week-old female athymic nu/nu mice were purchased from Envigo. Experiments were reviewed and all procedures were performed according to an animal protocol approved by the Institutional Animal Care and Use Committee of UT MD Anderson Cancer Center. […] Carboplatin was administrated i.p. once a week at a dose of 25 mg/kg. […] Carboplatin was treated at a dose of 30 mg/kg once a week for six weeks. […] At end of six weeks, the mice were sacrificed by CO2. The mice were dissected immediately after death and the tumors were collected and weighed.
# OVCAR8 cells were injected intraperitoneally (ip) into nu/nu mice. Treatment started 7 days post injection. […] At the conclusion of the treatment, the mice were sacrificed, and the tumor was dissected and weighed (FIG. 23A). […] The tumor volume was measured at indicated time points (FIG. 23D).
# A2780-CP20 = assay: Cell viability, cisplatin-resistant sub-line; assay type: cell-based; conditions: 96 h
# Protocol: (§3) Cisplatin-resistant A2780-CP20 and cisplatin-sensitive A27801 PAR sub-lines were plated at a density of 2000/well in 96-well plates, then treated with different concentrations of carboplatin for 96 h as indicated. Cell viability was measured with a bioluminescence assay and the IC50 was calculated. […] (C, D).
# (§4) Cells were seeded in 6 replicates in black-walled and clear-bottomed 96-well plates and incubated overnight. […] The CellTiter-Glo luminescent cell viability assay (Promega) was used to evaluate the effect of treatment on cancer growth. This experiment was performed several times to optimize the concentration. […] GraphPad Prism 8 was used to generate growth curves and calculated IC50. CalcuSyn was used to evaluate additive or synergistic interactions, a combination Index (CI value).
# (§5) Platinum resistance is commonly seen in ovarian cancer patients with recurrent disease. There is currently no standard chemotherapy for platinum-resistant recurrence. Targeting DNA damage and repair is an attractive therapeutic approach in platinum-resistant ovarian cancer.
# A2780-PAR = assay: Cell viability, cisplatin-sensitive sub-line; assay type: cell-based; conditions: 96 h
# Protocol: as §3, §4, §5
SMILES,pIC50 (BT549),pIC50 (DOV13),pIC50 (HCC5032),pIC50 (HMEC16620),pIC50 (IGROV1),pIC50 (MDA-2774),pIC50 (MDA-MD-231),pIC50 (NOE72),pIC50 (OAW28),pIC50 (OC316),pIC50 (OV90),pIC50 (OVCAR3),pIC50 (OVCAR8),pIC50 (SKOv3),levels of γ-H2AX and tailed DNA [2],tumor growth (tumor volume) (SKOv3 xenograft [5]),other results
"N.N.[Cl][Pt][Cl] [Cisplatin, cisplatin]",,,,,,,,,,,,,,,,,"pIC50 ([1]; SK-OV-3, Table 9, cisplatin combinations): 4.77; pIC50 ([1]; SKOV3, Table 6, FIG. 26, top locked at 100): 4.77"
"COc1c(F)cc(F)cc1-c1c[nH]c2ncc(-c3cnn(C4CCNCC4)c3)cc12 [Compound A, 3-(3,5-difluoro-2-methoxyphenyl)-5-(1-(piperidin-4-yl)-1H-pyrazol-4-yl)-1H-pyrrolo[2,3-b]pyridine]",5.69,5.55,5.65,5.44,5.96,5.97,5.63,5.24,5.77,5.90,5.41,5.55,5.86,5.91,modestly increased,,phosphorylation of HDAC4/HDAC5/HDAC7 [3]: significantly decreased
"O=C(c1cc(Cc2n[nH]c(=O)c3ccccc23)ccc1F)N1CCN(C(=O)C2CC2)CC1 [Olaparib, olaparib]",4.86,4.49,4.84,5.92,5.55,5.20,5.35,5.19,5.44,5.31,5.08,5.42,5.19,4.26,modestly increased,,MEF2 promoter activity (MEF2 promoter activity): did not; tumor growth (SKOv3 xenograft [4]): significantly inhibited tumor growth; tumor burden / tumor volume (MDA-MB-231 xenograft): remained unchanged; numbers of transcripts up or down-regulated by ≥2-fold (SKOv3 cells): 3
"CC(=O)O[C@H]1C(=O)[C@@]2(C)[C@H]([C@H](OC(=O)c3ccccc3)[C@]3(O)C[C@H](OC(=O)[C@H](O)[C@@H](NC(=O)c4ccccc4)c4ccccc4)C(C)=C1C3(C)C)[C@]1(OC(C)=O)CO[C@@H]1C[C@@H]2O [Paclitaxel, paclitaxel]",,,,,,,,,,,,,,,,significantly inhibited tumor growth,"pIC50 ([1]; Homo sapiens, SK-OV-3, SK-OV-3, Table 7, paclitaxel combinations): 6.90; pIC50 ([1]; Homo sapiens, SK-OV-3, SKOV3, Table 5, FIG. 25): 7.41; pIC50 ([1]; Homo sapiens, SK-OV-3, SKOV3, Table 6, FIG. 26): 6.90; Test/Control (%) at drug Concentration [μM] (MAXF Hs 578T; Table 14, 1.0E+00 μM): 38%; Test/Control (%) at drug Concentration [μM] (MAXF Hs 578T; Table 14, 1.0E−01 μM): 44%; Test/Control (%) at drug Concentration [μM] (MAXF Hs 578T; Table 14, 1.0E−02 μM): 89%; Test/Control (%) at drug Concentration [μM] (MAXF Hs 578T; Table 14, 3.2E−01 μM): 42%; Test/Control (%) at drug Concentration [μM] (MAXF Hs 578T; Table 14, 3.2E−02 μM): 52%; Test/Control (%) at drug Concentration [μM] (MAXF MDA-MB-231; Table 14, 1.0E+00 μM): 10%; Test/Control (%) at drug Concentration [μM] (MAXF MDA-MB-231; Table 14, 1.0E−01 μM): 17%; Test/Control (%) at drug Concentration [μM] (MAXF MDA-MB-231; Table 14, 1.0E−02 μM): 45%; Test/Control (%) at drug Concentration [μM] (MAXF MDA-MB-231; Table 14, 1.0E−03 μM): 110%; Test/Control (%) at drug Concentration [μM] (MAXF MDA-MB-231; Table 14, 3.2E−01 μM): 14%; Test/Control (%) at drug Concentration [μM] (MAXF MDA-MB-231; Table 14, 3.2E−02 μM): 24%"
N.N.O=C([O-])C1(C(=O)[O-])CCC1.[Pt+2] [carboplatin],,,,,,,,,,,,,,,,significantly inhibited tumor growth,pIC50 (A2780-CP20): 4.46; pIC50 (A2780-PAR): 5.96
